In publication PMC12203525, “The insight into the biology of five homologous lectins produced by the entomopathogenic bacterium and nematode symbiont Photorhabdus laumondii” (Glycobiology, 2025):
Like-named read-outs stand apart in the source and are kept apart here.

Legend:
PLL4 [1] = molecular target: T1, PLL4 (Photorhabdus laumondii subsp. laumondii, UniProt Q7N8I6); experiment: Glycan microarray screening (634 saccharide ligands); format: binding, Photorhabdus laumondii subsp. laumondii TT01; settings: DyLight488-labelled PLL4, 200 μg/mL
Method: Lectins were fluorescently labelled with DyLight 488 according to the manufacturer’s instructions and the unbound dye was extensively dialyzed out of the protein solution. The microarray chip (Semiotik LLC, Moscow, Russia, batch OSPS280715) containing 634 saccharide ligands, each in 6 replicates, was treated with PBS (137 mM NaCl, 2.7 mM KCl, 8 mM Na2HPO4, […], pH 7.4) with added 0.1% Tween-20 for 15 min. The labelled proteins (200 μg/mL) were then separately applied to the chip surface and incubated in a humidity chamber at 37 °C for 1 h. After the incubation, the unbound protein was washed out with PBS containing 0.05% Tween-20 and deionized water. The chip was dried by airflow and scanned using an InnoScan1100 AL (Innopsys, Carbonne, France) with a 488 nm laser. The data were analyzed with the software Mapix 8.2.2 and an online glycan chip converter (Semiotic, https://rakitko.shinyapps.io/semiotik).

PLL2 [2] = molecular target: PLL2; parameters: method as in Fujdiarová et al, 2021, Faltinek et al, 2019; settings: ref Fujdiarová et al, 2021, Faltinek et al, 2019, cited from earlier work
PLL3 [3] = system: PLL3; parameters: method as in Faltinek et al. 2019; Fujdiarová et al. 2021; settings: inhibition of PLL3 binding to immobilized MGMR; ref Faltinek et al. 2019; Fujdiarová et al. 2021; read-out: IC50; cited from earlier work
PLL2 [4] = system: PLL2; parameters: method as in Faltinek et al. 2019; Fujdiarová et al. 2021; settings: inhibition of PLL2 binding to immobilized MGMR; ref Faltinek et al. 2019; Fujdiarová et al. 2021; read-out: IC50; cited from earlier work
PLL3 [5] = molecular target: PLL3; parameters: method as in Fujdiarová et al, 2021, Faltinek et al, 2019; settings: ref Fujdiarová et al, 2021, Faltinek et al, 2019, cited from earlier work; for Kd: ITC
PLL5 [6] = molecular target: T2, PLL5 (Photorhabdus laumondii subsp. laumondii, UniProt Q7N8I5); experiment: Isothermal titration calorimetry (ITC); format: binding, Photorhabdus laumondii subsp. laumondii TT01; settings: for KD: ITC
Method: (§1) ITC experiments were performed using an Auto-ITC200 calorimeter or Automated PEAQ-ITC calorimeter (both Malvern Panalytical, Malvern, UK). Measurements were carried out at 25 °C in the Tris buffer. Before the analyses, lectins were extensively dialyzed against the Tris buffer and the dialysate was used to dissolve ligands. The protein (0.1 mM or 0.2 mM) in the cell was titrated with 2 μL injections of the ligand (20 mM or 40 mM). […] Experiments for each interacting ligand were carried out in triplicates. Integrated heat effects were evaluated by nonlinear regression using a single-site binding model in Origin 7 (OriginLab, Northampton, USA) ([Wiseman et al. 1989]). Triplicate measurements were fitted simultaneously using a global fit approach. Due to the low affinity of the interaction, the binding stoichiometry was fixed during the fitting.

PLL4 [7] = molecular target: T1, PLL4; experiment: Isothermal titration calorimetry (ITC); format: binding, Photorhabdus laumondii subsp. laumondii TT01; settings: for KD: ITC
Method: as §1

PLL [8] = molecular target: T3, PLL (Photorhabdus laumondii subsp. laumondii, UniProt Q7N8J0); experiment: Isothermal titration calorimetry (ITC); format: binding, Photorhabdus laumondii subsp. laumondii TT01; settings: for KD: ITC
Method: as §1

PLL5 [9] = molecular target: T2, PLL5; experiment: SPR inhibition assay on the MGMR channel; parameters: species or system Photorhabdus laumondii subsp. laumondii TT01; settings: inhibition of PLL5 (62 nM) binding to immobilized MGMR
Method: (§2) SPR experiments were carried out on BIAcore T200 or BIAcore S200 instruments (GE Healthcare, UK). Sugar moieties were immobilized on the chip surface using the standard procedures according to the manufacturer’s instructions. Measurements with immobilized MGMR were performed on the chip prepared previously (high-density chip) ([Fujdiarová et al. 2021]). Measurements with immobilized α-L-fucose were performed on the streptavidin chip (GE Healthcare, UK). Biotinylated α-L-fucose was immobilized on channel 2 to yield a final response of 29 RU, unmodified channel 1 was used as a control.
(§3) Measurements were performed in Tris buffer with the addition of 0.05% Tween 20 at a flow rate of 30 μl/min at 25 °C. […] 50 mM NaOH for 30 s (flow 30 μl/min) was used for chip regeneration. To determine KDs (app) towards MGMR, 2-fold dilution series of lectins was used (PLL: 0.048 – 50 μM, PLL4: 0.008 - 2 μM; PLL5: 1.9 – 500 nM). The data were evaluated with the BIAcore T200 or BIAcore S200 evaluation software using a steady state approach. To determine KD(app) towards α-L-fucose, 2-fold dilution series of lectins was used (PLL: 1.25 – 20 μM, PLL4: 0.39 – 12.5 μM; PLL5: 0.12 – 30 μM). The data were evaluated with the BIAcore T200 or BIAcore S200 evaluation software using a steady state approach (PLL5) or a single-cycle kinetics approach (PLL, PLL4). For SPR inhibition experiments on the MGMR channel, 250 nM PLL, 250 nM PLL4 or 62 nM PLL5, respectively, was used. Proteins of the given concentration were mixed with a concentration series of tested inhibitors (0.01 - 0.4 M). Proteins without an inhibitor were used as a control. The response of the lectin bound to the sugar surface at equilibrium was plotted against the concentration of inhibitor in order to determine IC50. The response in the appropriate blank channel was subtracted prior to all evaluations.

PLL4 [10] = molecular target: T1, PLL4; experiment: SPR inhibition assay on the MGMR channel; parameters: species or system Photorhabdus laumondii subsp. laumondii TT01; settings: inhibition of PLL4 (250 nM) binding to immobilized MGMR
Method: as §2, §3

PLL [11] = molecular target: T3, PLL; experiment: SPR inhibition assay on the MGMR channel; parameters: species or system Photorhabdus laumondii subsp. laumondii TT01; settings: inhibition of PLL (250 nM) binding to immobilized MGMR
Method: as §2, §3

T1 sequence (Q7N8I6 entry or part of it): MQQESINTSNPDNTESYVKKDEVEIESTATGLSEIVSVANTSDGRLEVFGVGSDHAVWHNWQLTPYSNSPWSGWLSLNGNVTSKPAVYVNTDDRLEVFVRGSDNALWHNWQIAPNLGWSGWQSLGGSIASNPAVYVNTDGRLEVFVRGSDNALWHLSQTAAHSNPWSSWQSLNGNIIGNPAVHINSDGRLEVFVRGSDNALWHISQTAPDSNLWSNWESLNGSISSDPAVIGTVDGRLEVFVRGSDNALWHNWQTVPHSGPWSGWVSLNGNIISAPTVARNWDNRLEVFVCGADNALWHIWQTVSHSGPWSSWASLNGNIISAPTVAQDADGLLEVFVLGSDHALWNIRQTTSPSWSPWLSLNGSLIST
T3 sequence (Q7N8J0 entry or part of it): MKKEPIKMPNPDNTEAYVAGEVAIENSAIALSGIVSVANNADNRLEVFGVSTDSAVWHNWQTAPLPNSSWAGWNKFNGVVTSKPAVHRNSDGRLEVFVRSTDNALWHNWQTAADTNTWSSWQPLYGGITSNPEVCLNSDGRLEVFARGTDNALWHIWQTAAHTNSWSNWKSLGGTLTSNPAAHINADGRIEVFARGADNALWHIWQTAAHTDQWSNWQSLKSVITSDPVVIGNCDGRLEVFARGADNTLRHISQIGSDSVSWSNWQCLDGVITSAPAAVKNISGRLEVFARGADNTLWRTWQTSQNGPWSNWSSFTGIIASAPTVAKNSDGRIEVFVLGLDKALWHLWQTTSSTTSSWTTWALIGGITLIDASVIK
T2 sequence (Q7N8I5 entry or part of it): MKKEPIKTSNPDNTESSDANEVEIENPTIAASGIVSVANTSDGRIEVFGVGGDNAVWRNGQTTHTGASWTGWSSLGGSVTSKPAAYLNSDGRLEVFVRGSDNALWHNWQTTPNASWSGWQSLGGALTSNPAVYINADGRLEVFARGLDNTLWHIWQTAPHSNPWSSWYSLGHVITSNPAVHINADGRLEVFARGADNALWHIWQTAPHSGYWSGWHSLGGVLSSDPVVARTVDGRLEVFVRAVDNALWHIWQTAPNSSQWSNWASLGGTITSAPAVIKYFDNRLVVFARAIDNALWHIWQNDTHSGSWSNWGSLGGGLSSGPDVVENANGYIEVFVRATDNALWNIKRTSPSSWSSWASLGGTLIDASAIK

Question: Which “glycan array binding (in words)” value (PLL4 [1]) does the source give for `OC[C@H]1O[C@@H](O[C@H]2[C@H](O)[C@@H](O)C(O)O[C@@H]2CO)[C@H](O)[C@@H](O)[C@H]1O` (mixture of isomers) [lactose] here?
Answer: The value was “recognized”.

Question: With `CO[C@@H]([C@H](O)[C@H](O)CO)[C@@H](O)C=O` [3OMG, 3-O-methyl-D-glucose] as the compound, how does the Kd (PLL2 [2]; ITC, PLL2, stoichiometry N fixed to 8) read?
Answer: Its Kd is 11.2 ± 0.8 mM.

Question: What about the “interaction with the sugar in ITC (in words)” value (“interaction with the sugar” below) (PLL2 [2]; PLL2) of the same compound?
Answer: Its value is “interacted”.

Question: What about the IC50 (PLL3 [3]) of the same compound?
Answer: The IC50 was 26.4 ± 2.84 mM.

Question: What about the IC50 (PLL2 [4]) of the same compound?
Answer: Its IC50 is 5.2 ± 0.91 mM.

Question: And the Kd (PLL3 [5]; PLL3, stoichiometry N fixed to 2)?
Answer: Its Kd is 11.5 ± 1.55 mM.

Question: And the Kd (PLL3 [5]; PLL3, stoichiometry N fixed to 4)?
Answer: The Kd was 11.1 ± 1.5 mM.

Question: What about the Kd (PLL3 [5]; PLL3, stoichiometry N fixed to 6) of the same compound?
Answer: Its Kd is 10.7 ± 1.5 mM.

Question: And the Kd (PLL3 [5]; PLL3, stoichiometry N fixed to 8)?
Answer: Its Kd is 10.2 ± 0.62 mM.

Question: What about the “interaction with the sugar” value (PLL3 [5]; PLL3) of the same compound?
Answer: Its value is “interacted”.

Question: And the KD (PLL5 [6]; PLL5, stoichiometry N fixed to 2)?
Answer: Its KD is “No int”.

Question: What about the KD (PLL5 [6]; PLL5, stoichiometry N fixed to 4) of the same compound?
Answer: The KD was “No int”.

Question: What about the KD (PLL5 [6]; PLL5, stoichiometry N fixed to 6) of the same compound?
Answer: The KD was “No int”.

Question: What about the KD (PLL5 [6]; PLL5, stoichiometry N fixed to 8) of the same compound?
Answer: Its KD is “No int”.

Question: What about the “interaction with the sugar” value (PLL5 [6]; PLL5) of the same compound?
Answer: The value was “did not bind these sugars significantly”.

Question: And the KD (PLL4 [7]; PLL4, stoichiometry N fixed to 2)?
Answer: Its KD is “No int”.

Question: And the KD (PLL4 [7]; PLL4, stoichiometry N fixed to 4)?
Answer: Its KD is “No int”.

Question: And the KD (PLL4 [7]; PLL4, stoichiometry N fixed to 6)?
Answer: Its KD is “No int”.

Question: And the KD (PLL4 [7]; PLL4, stoichiometry N fixed to 8)?
Answer: The KD was “No int”.

Question: And the “interaction with the sugar” value (PLL4 [7]; PLL4)?
Answer: Its value is “did not bind these sugars significantly”.

Question: And the “interaction with the sugar” value (PLL [8])?
Answer: Its value is “did not bind these sugars significantly”.

Question: And the KD (PLL [8]; stoichiometry N fixed to 2)?
Answer: Its KD is “No int”.

Question: What about the KD (PLL [8]; stoichiometry N fixed to 4) of the same compound?
Answer: Its KD is “No int”.

Question: What about the KD (PLL [8]; stoichiometry N fixed to 6) of the same compound?
Answer: Its KD is “No int”.

Question: What about the KD (PLL [8]; stoichiometry N fixed to 8) of the same compound?
Answer: The KD was “No int”.

Question: What about the IC50 (PLL5 [9]) of the same compound?
Answer: The IC50 was 16.9 ± 2.69 mM.

Question: And the IC50 (PLL4 [10])?
Answer: The IC50 was 13.1 ± 0.84 mM.

Question: What about the IC50 (PLL [11]) of the same compound?
Answer: The IC50 was 48.1 ± 14.9 mM.

Question: For `CC(=O)N[C@@H]1[C@@H](O)[C@H](O[C@@H]2O[C@H](CO)[C@H](O)[C@H](O)[C@H]2O[C@@H]2O[C@H](C)[C@H](O)[C@H](O)[C@H]2O)[C@@H](CO)O[C@H]1O` [D-Fucβ1-2-D-Galβ1-4-D-GlcNAcβ], which “glycan array binding (in words)” value (PLL4 [1]) is on record?
Answer: Its value is “recognized”.
